This is an account of results in publication PMC10607366 (International Journal of Molecular Sciences, 2023).

Where a name gives a salt, the structure may show the parent alone.

The nature of one series: in vitro. The following applies: dog.
Series [1] has as its system H1N1 A/Netherlands/602/2009 (N09). The series is classed as cell-based, Influenza A virus.
Series [2] has as its system clinical influenza A strain (H1N1). The series is classed as cell-based, Influenza A virus.
The subject of series [3] is H1N1 A/Netherlands/602/2009 (N09). The series is classed as cell-based, Influenza A virus. The source holds these as a separate data set.
For series [4] the test system is unchanged. The series is classed as cell-based, Influenza A virus. The source holds these as a separate data set.
Series [5] has the same test system. Briefly: microbe, parasite or virus in culture. The conditions noted are these: Influenza A virus, H1N1, A549, 48 h.
Series [6] has the same test system. Briefly: microbe, parasite or virus in culture. The series is classed as cell-based, Influenza A virus. The conditions noted are these: for inhibition at 10 µM: Influenza A virus, H1N1, A549, 48 h; for Inhibition (%): 10 µM.
Series [7] shares this test system. The conditions noted are these: 10 µM.
Series [8] has the same test system. Briefly: microbe, parasite or virus in culture. The conditions noted are these: Influenza A virus, H1N1, MDCK, read-out: EC50 (95% CI). The series is classed as cell-based.
A further series relates to influenza virus. The following applies: cited from earlier work.

In turn, `CC/C(=C(/CC)c1ccc(O)cc1)c1ccc(O)cc1` [Diethylstilbestrol] had a CC50 in the series “in vitro” of 9.81 µM. For the same compound, the “Inhibition of SARS-CoV-2” value in the series with SARS-CoV-2 B.1.1.7 is “did not inhibit”. In addition, in [1], the “Inhibition, pre-treatment” value is “good inhibition” and the “Potency when added post-infection” value is given as “potency of the compound was lost”. Besides, in the series with MucilAir tissues, the “Toxicity in Mucilair tissues” value is listed as “absence of toxicity”. In addition, the “Reduction of viral load” value in [2] is “more than one log”. In addition, the “Viral RNA replication” value in [3] is “inhibited”. Moreover, the “Attachment of the virus” value in series [4] is given as “not inhibited”. For the same compound, the viability at 10 µM in [5] was 72%. In addition, the inhibition at 10 µM in [6] is 114%.
Consider `CCN(CC)CCNC(C(=O)OCCC(C)C)c1ccccc1.Cl.Cl` (stereo not drawn) [Camylofine chlorhydrate], for which the “Viability (%)” value in [7] stood at 97%. Also, the “Inhibition (%)” value in [6] amounted to 97%.
With `CCN(CCCc1ccccc1)CCCc1ccccc1.O=C(O)CC(O)(CC(=O)O)C(=O)O` [Alverine citrate salt], in series [7], the “Viability (%)” value is reported as 145%. Besides, in [6], the “Inhibition (%)” value is on record as 99%.
In “in vitro”, `CC[C@H](c1ccc(O)cc1)[C@@H](CC)c1ccc(O)cc1` [Hexestrol] came in with a CC50 of 46.9 µM. Moreover, in [8], the EC50 was determined as 0.14 µM.
With `COc1ccc2c(c1)[C@]13CCCC[C@@H]1[C@H](C2)N(C)CC3` [Dextromethorphan hydrobromide monohydrate], in [5], the viability at 10 µM was found to be 103%. Moreover, the inhibition at 10 µM in series [6] came out at 100%.
The compound `Oc1ccc(/C=C/c2cc(O)cc(O)c2)cc1` [Resveratrol] yielded a CC50 in “in vitro” of 52 µM. Moreover, the EC50 in series [8] was above 10 µM. For the same compound, the “Reported inhibition of influenza” value with influenza virus is reported as “inhibit influenza”.
In “in vitro”, `C=C[C@@](C)(/C=C/c1ccc(O)cc1)CCC=C(C)C` [Bakuchiol] had a CC50 at 24 h of 46.2 µM. Also, in [8], the half-maximal effective concentration (EC50) was 0.94 µM. In addition, the “Reported inhibition of influenza virus” value in the series with influenza virus is recorded as “inhibit influenza virus”.
As to `C[C@H](Cc1ccc(O)c(O)c1)[C@@H](C)Cc1ccc(O)c(O)c1` [Masoprocol], the CC50 in “in vitro” amounted to 84.9 µM. Further, the EC50 in series [8] was above 10 µM.
With `C/C=C(/C(=C/C)c1ccc(O)cc1)c1ccc(O)cc1` [Dienestrol], the CC50 in the series “in vitro” was determined as 32.6 µM. The EC50 in series [8] came out at 3.13 µM.
In the case of `OC(CCN1CCCC1)(c1ccccc1)C1CCCCC1` (stereo not drawn) [Procyclidine hydrochloride], the viability at 10 µM in [5] turned out to be 91%. For the same compound, the inhibition at 10 µM in [6] stood at 97%.

For orientation: viability means a read-out of living cells in per cent, often relative to untreated cells. In general, inhibition refers to the change of the read-out against control, counted positive when it falls. By EC50 is commonly meant the concentration needed to bring the measured effect to its halfway point.
